What was measured:
[1] = system: primary human total T-cells; assay: T-cell activation, CD25 surface staining, Biological Example 9; type: cell-based; conditions: anti-CD3 and anti-CD28 co-stimulation, 48 hours, fold change over baseline, Table 5
[2] = system: primary human total T-cells; assay: T-cell activation, CD25 surface staining, Biological Example 13; type: cell-based; conditions: anti-CD3 and anti-CD28 co-stimulation, 48 hours, fold change over baseline, Table 8
[3] = molecular target: T1, Cbl-b (Homo sapiens (Human), UniProt Q13191); assay: Cbl-b displacement assay (Cbl-b inhibition assay), Biological Example 1; type: binding
T1 sequence (Q13191 36-427): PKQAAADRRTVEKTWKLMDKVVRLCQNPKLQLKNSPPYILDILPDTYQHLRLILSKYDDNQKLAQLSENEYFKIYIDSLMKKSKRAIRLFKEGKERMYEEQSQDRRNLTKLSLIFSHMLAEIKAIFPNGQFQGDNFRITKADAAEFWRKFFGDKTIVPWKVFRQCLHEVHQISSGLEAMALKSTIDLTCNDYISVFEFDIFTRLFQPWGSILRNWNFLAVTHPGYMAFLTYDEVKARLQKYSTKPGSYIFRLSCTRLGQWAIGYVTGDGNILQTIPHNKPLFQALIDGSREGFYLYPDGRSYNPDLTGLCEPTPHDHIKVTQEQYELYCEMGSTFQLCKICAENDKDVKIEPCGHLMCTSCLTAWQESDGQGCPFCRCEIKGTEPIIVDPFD
Method in brief: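 Probe displacement read as TR-FRET (520/620 nm) after 1 h with 2 nM streptavidin-terbium and 150 nM BODIPY FL-labelled inhibitor probe, about EC40. Before that, compound in 1% DMSO sat 1 h at room temperature with N-Avitag biotinylated Cbl-b 36–427, 0.5 nM (High) or 0.125 nM (Low), in pH 7.5 HEPES buffer.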

[4] = system: primary human total T-cells; assay: T-cell activation, IL-2 secretion, Biological Example 9; type: cell-based; conditions: 48 hours, fold change over baseline, Table 5; for IL-2 secretion CD3/CD28 0.3 μM / IL-2 secretion CD3/CD28 1 μM: anti-CD3 and anti-CD28 co-stimulation; for IL-2 secretion CD3/CD28 0.3 μM: 0.3 μM inhibitor; for IL-2 secretion CD3/CD28 1 μM / IL-2 secretion CD3 1 μM: 1 μM inhibitor; for IL-2 secretion CD3 1 μM / IL-2 secretion CD3 3 μM: anti-CD3 stimulation alone; for IL-2 secretion CD3 3 μM: 3 μM inhibitor
[5] = system: primary human total T-cells; assay: T-cell activation, IL-2 secretion, Biological Example 2; type: cell-based; conditions: 48 hours, fold change over baseline; for fold induction at 0.3 µM: 0.3 μM inhibitor; for fold induction at 1 µM: 1 μM inhibitor; for fold induction at 3 µM: 3 μM inhibitor
[6] = molecular target: T1, Cbl-b; assay: Cbl-b displacement assay (Cbl-b inhibition assay), Biological Example 8; type: binding; conditions: Table 4
Experimental: (§1) Candidate compounds were evaluated for their ability to bind and inhibit Cbl-b, an E3 ubiquitin-protein ligase, as evidenced by their ability to displace a fluorophore-labeled probe bound to Cbl-b.
(§2) The ability of candidate compounds to displace a known inhibitor and thereby inhibit Cbl-b activity was measured by monitoring the interaction of Cbl-b with a fluorophore-labeled probe in the presence of the candidate compound. A truncated variant of Cbl-b (UniProt number Q13191) containing residues 36-427 and an Avitag at its N-terminus was co-expressed with BirA biotin ligase and purified using a standard protocol (see Dou et al., Nature Structural and Molecular Biology 8: 982-987, 2013; Avidity LLC).
Fluorescently-labeled inhibitor probe was synthesized and tagged with BODIPY FL. Cbl-b displacement assays were performed in a 384-well plate at room temperature in a […] by pre-incubating 0.5 nM Cbl-b or 0.125 nM Cbl-b (final concentration, indicated as “High” and “Low,” respectively) in an assay buffer containing 20 mM HEPES pH 7.5, 150 mM NaCl, 0.01% Triton X-100, 0.01% BSA, and 0.5 mM TCEP in the presence of a candidate compound in 1% DMSO (final concentration) for 1 hour. After incubation in the presence of the candidate compound, the plate was incubated for an additional one hour in the presence of an approximate EC40 binding saturation consisting of 150 nM fluorescently-labeled inhibitor probe and 2 nM Streptavidin-Terbium (Cisbio) (final concentrations). Following the one hour incubation, the plates were read for TR-FRET signal at […] using an Envision plate reader (Perkin Elmer).
(§3) The resulting data for the Cbl-b activity assays were analyzed using standard methods to determine the IC50 values for the tested compounds.

[7] = molecular target: T1, Cbl-b; assay: Cbl-b displacement assay (Cbl-b inhibition assay), Biological Example 12; type: binding; conditions: Table 7
Experimental: as §1, §2
Fluorescently-labeled inhibitor probe was synthesized and tagged with BODIPY FL. Cbl-b displacement assays were performed in a 384-well plate at room temperature in a […] by pre-incubating 0.5 nM Cbl-b or 0.125 nM Cbl-b (final concentration, indicated as “High” and “Low,” respectively) in an assay buffer containing 20 mM HEPES pH 7.5, 150 mM NaCl, 0.01% Triton X-100, 0.01% BSA and 0.5 mM TCEP in the presence of a candidate compound in 1% DMSO (final concentration) for one hour. After incubation in the presence of the candidate compound, the plate was incubated for an additional one hour in the presence of an approximate EC40 binding saturation consisting of 150 nM fluorescently-labeled inhibitor probe and 2 nM Streptavidin-Terbium (Cisbio) (final concentrations). Following the one hour incubation, the plates were read for TR-FRET signal at […] using an Envision plate reader (Perkin Elmer).
as §3

[8] = system: primary human total T-cells; assay: T-cell activation, CD25 surface staining, Biological Example 2; type: cell-based; conditions: 48 hours, fold change over baseline; for fold induction at 0.3 µM: 0.3 μM inhibitor; for fold induction at 1 µM: 1 μM inhibitor; for fold induction at 3 µM: 3 μM inhibitor
[9] = system: primary human total T-cells; assay: T-cell activation, IL-2 secretion, Biological Example 13; type: cell-based; conditions: 48 hours, fold change over baseline, Table 8; for IL-2 secretion CD3/CD28 0.3 μM / IL-2 secretion CD3/CD28 1 μM: anti-CD3 and anti-CD28 co-stimulation; for IL-2 secretion CD3/CD28 0.3 μM: 0.3 μM inhibitor; for IL-2 secretion CD3/CD28 1 μM / IL-2 secretion CD3 1 μM: 1 μM inhibitor; for IL-2 secretion CD3 1 μM / IL-2 secretion CD3 3 μM: anti-CD3 stimulation alone; for IL-2 secretion CD3 3 μM: 3 μM inhibitor
[10] = anti-CD3 and anti-CD28 co-stimulation
[11] = anti-CD3 and anti-CD28 co-stimulation, read-out: IL-2 secretion CD3/CD28 1 μM
[12] = anti-CD3 stimulation alone, read-out: IL-2 secretion CD3 1 μM
[13] = 0.5 nM Cbl-b final concentration (High), read-out: Cbl-b IC50 (High)
[14] = anti-CD3 and anti-CD28 co-stimulation, read-out: CD25 staining CD3/CD28 1 μM
[15] = anti-CD3 stimulation alone, read-out: CD25 staining CD3 1 μM
[16] = 0.125 nM Cbl-b final concentration (Low), read-out: Cbl-b activity IC50 (Low)
[17] = 0.125 nM Cbl-b final concentration (Low), read-out: Cbl-b IC50 (Low)

SMILES | IL-2 secretion CD3/CD28 0.3 μM [4] | IL-2 secretion CD3/CD28 1 μM [4] | IL-2 secretion CD3 1 μM [4] | IL-2 secretion CD3 3 μM [4] | fold induction at 0.3 µM [5, 10] | fold induction at 1 µM [5, 11] | fold induction at 1 µM [5, 12] | fold induction at 3 µM ([5]; anti-CD3 stimulation alone) | fold induction at 0.3 µM [8, 10] | fold induction at 1 µM [8, 14] | fold induction at 1 µM [8, 15] | fold induction at 3 µM ([8]; anti-CD3 stimulation alone) | IL-2 secretion CD3/CD28 0.3 μM [9] | IL-2 secretion CD3/CD28 1 μM [9] | IL-2 secretion CD3 1 μM [9] | IL-2 secretion CD3 3 μM [9] | IC50 [3, 16] | IC50 [6, 17] | IC50 [7, 17] | other results
Cc1cc(C(=O)Nc2cccc([C@]3(Cc4nncn4C)C[C@@H](C#N)C3)c2)nc(C2CC2)n1 [Compound 1, N-(3-((1r,3r)-3-cyano-1-((4-methyl-4H-1,2,4-triazol-3-yl)methyl)cyclobutyl)phenyl)-2-cyclopropyl-6-methylpyrimidine-4-carboxamide] | C (C indicates <10 fold) | B (B indicates 10-15 fold) | B (B indicates 0.34-0.66 fold) | B (B indicates 0.34-0.66 fold) | ≤ 15 | ≤ 15 | < 0.4 | < 0.4 | 1.24 to 1.39 | 1.24 to 1.39 | 1 to 1.15 | 1 to 1.15 | C (C indicates ≤10 fold) | B (B indicates 11-15 fold) | B (B indicates 0.34-0.66 fold) | B (B indicates 0.34-0.66 fold) |  |  |  | CD25 staining CD3/CD28 0.3 μM ([1]; 0.3 μM inhibitor): B (B indicates 1.25-1.39 fold); CD25 staining CD3/CD28 1 μM ([1]; 1 μM inhibitor): B (B indicates 1.25-1.39 fold); CD25 staining CD3/CD28 0.3 μM ([2]; 0.3 μM inhibitor): B (B indicates 1.25-1.39 fold); CD25 staining CD3/CD28 1 μM ([2]; 1 μM inhibitor): B (B indicates 1.25-1.39 fold); IC50 ([3]; 0.5 nM Cbl-b final concentration (High), read-out: Cbl-b activity IC50 (High)): 2 to 5 nM; IC50 ([3]; read-out: IC50 values in the Cbl-b inhibition assay of Biological Example 1): 2 to 5 nM; IC50 [6, 13]: 1 to 5 nM; IC50 [7, 13]: 1 to 5 nM
C[C@H]1CCCN(Cc2cc3c(c(C(F)(F)F)c2)CN(c2cccc([C@]4(Cc5nncn5C)C[C@@H](C#N)C4)c2)C3=O)C1 [Compound 19, (1R,3r)-3-((4-methyl-4H-1,2,4-triazol-3-yl)methyl)-3-(3-(6-(((S)-3-methylpiperidin-1-yl)methyl)-1-oxo-4-(trifluoromethyl)isoindolin-2-yl)phenyl)cyclobutane-1-carbonitrile] | A (A indicates >15 fold) | A (A indicates >15 fold) | A (A indicates >0.66 fold) | A (A indicates >0.66 fold) | > 20 | > 20 | > 0.85 | > 0.85 | > 1.39 | > 1.39 | > 1.15 | > 1.15 | A (A indicates >15 fold) | A (A indicates >15 fold) | A (A indicates >0.66 fold) | A (A indicates >0.66 fold) | < 1 nM | < 1 nM | < 1 nM | 
Cn1cnnc1C[C@]1(c2cccc(N3Cc4c(cc(CN[C@H]5CCC(F)(F)C5)cc4C(F)(F)F)C3=O)c2)C[C@H](C#N)C1 [Compound 20, (1R3r)-3-(3-(6-((((S)-3,3-difluorocyclopentyl)amino)methyl)-1-oxo-4-(trifluoromethyl)isoindolin-2-yl)phenyl)-3-((4-methyl-4H-1,2,4-triazol-3-yl)methyl)cyclobutane-1-carbonitrile] | A (A indicates >15 fold) | A (A indicates >15 fold) | A (A indicates >0.66 fold) | A (A indicates >0.66 fold) | > 20 | > 20 | > 0.85 | > 0.85 | > 1.39 | > 1.39 | > 1.15 | > 1.15 | A (A indicates >15 fold) | A (A indicates >15 fold) | A (A indicates >0.66 fold) | A (A indicates >0.66 fold) | < 1 nM | < 1 nM | < 1 nM | 
Cn1cnnc1C[C@]1(c2cccc(N3Cc4c(cc(CN[C@@H]5CCC(F)(F)C5)cc4C(F)(F)F)C3=O)c2)C[C@H](C#N)C1 [Compound 21, (1R,3r)-3-(3-(6-((((R)-3,3-difluorocyclopentyl)amino)methyl)-1-oxo-4-(trifluoromethyl)isoindolin-2-yl)phenyl)-3-((4-methyl-4H-1,2,4-triazol-3-yl)methyl)cyclobutane-1-carbonitrile] | A (A indicates >15 fold) | A (A indicates >15 fold) | A (A indicates >0.66 fold) | A (A indicates >0.66 fold) | > 20 | > 20 | > 0.85 | > 0.85 | > 1.39 | > 1.39 | > 1.15 | > 1.15 | A (A indicates >15 fold) | A (A indicates >15 fold) | A (A indicates >0.66 fold) | A (A indicates >0.66 fold) | < 1 nM | < 1 nM | < 1 nM | 
C[C@@H]1CN(Cc2cc(C(=O)Nc3cccc([C@]4(Cc5nncn5C)C[C@@H](C#N)C4)c3)nc(C3CC3)c2)CCO1 [Compound 56, N-(3-((1r,3R)-3-cyano-1-((4-methyl-4H-1,2,4-triazol-3-yl)methyl)cyclobutyl)phenyl)-6-cyclopropyl-4-(((R)-2-methylmorpholino)methyl)picolinamide] | A (A indicates >15 fold) | A (A indicates >15 fold) | A (A indicates >0.66 fold) | A (A indicates >0.66 fold) | 15 to 20 | > 20 | 0.4 to 0.85 | 0.4 to 0.85 | ≤ 1.24 | ≤ 1.24 | 1 to 1.15 | 1 to 1.15 | A (A indicates >15 fold) | A (A indicates >15 fold) | A (A indicates >0.66 fold) | A (A indicates >0.66 fold) | < 1 nM | < 1 nM | < 1 nM | 

Reference: US11530229B2, “Cyano cyclobutyl compounds for CBL-B inhibition and uses thereof” (Nurix Therapeutics, Inc., priority 2019, dated 2022)
